The text below walks through data of US7316928B2, “Plant fatty acid amide hydrolases” (The University of North Texas, priority 2003, dated 2008).

Values joined by “and” are separate entries in the source; they are usually repeats but may differ in a detail not shown here. Equal values may be shown once. Read-outs that look alike come from different tables or passages of the source.

As usually defined, the Km is the substrate concentration at which the rate is half of its maximum. As a reminder, the Vmax is the rate approached at saturating substrate.

One data set relates to Arabidopsis seedlings. Description: Arabidopsis seedling growth / root elongation on MS medium with exogenous NAE 12:0. In kind it is in vivo. As to conditions: for EC50: Arabidopsis thaliana. On the procedure:
FIG. 11A-11C. Lengths of Arabidopsis seedling radicles/roots were measured daily after planting on MS medium that contained increasing concentrations of NAE 12:0. Data points are averages and standard deviation of 20 or more seedlings germinated and grown under identical conditions. There was a pronounced dose-dependent reduction in radicle/root length and elongation rate, similar to that shown previously (Blancaflor et al., 2003) for wildtype seedlings (FIG. 11A), and this seedling growth inhibition was more pronounced at higher NAE concentrations for both knockout lines (FIG. 11B and FIG. 11C).
FIG. 12. The rate of root elongation was calculated by a linear regression of the data presented in FIG. 11, and plotted as a function of NAE concentration.
Composite images were taken from seedlings grown on different plates, and were representative of typical replicate experiments. […] The altered profiles of extractable FAAH enzyme activities in mutant and transgenic plants led to predictable differences in the sensitivity of seedlings to exogenous NAE 12:0 indicating a modified ability of these plants to metabolize NAEs. Seedling growth of Arabidopsis wildtype seedlings was inhibited by exogenous treatment of NAE12:0).

For the next data set, the system named is rice (Os) FAAH. Description: NAE amidohydrolase activity of E. coli lysates expressing rice (Os) FAAH cDNA. In kind it is biochemical, Oryza sativa. To be noted: E. coli lysate, compared with NAE 18:2.
Data set [1] concerns the target Medicago truncatula (Mt) FAAH (Medicago truncatula, UniProt G7ISB0, G303S). In kind it is biochemical. To be noted: E. coli lysate, compared with NAE 18:2.
Data set [2] concerns the target Arabidopsis NAE amidohydrolase (Arabidopsis thaliana, UniProt Q7XJJ7). The experiment in a line: NAE amidohydrolase activity survey in crude E. coli lysates expressing Arabidopsis cDNA. In kind it is biochemical.
Data set [3] deals with Arabidopsis NAE amidohydrolase (FAAH) (Arabidopsis thaliana, UniProt Q7XJJ7). In kind it is biochemical.
Substrate in data set [4]: CCCCC/C=C\C/C=C\C/C=C\C/C=C\CCCC(=O)NCCO
Description: purified protein, by the assay type. As to conditions: other: apparent, substrate, 1 μg protein, pH 9.0, 30 min, 30° C., Michaelis-Menten fit.

Substrate in data set [5]: CCCCCCCCCCCC(=O)NCCO
Description: purified protein, by the assay type. To be noted: other: apparent, substrate, 1 μg protein, pH 9.0, 30 min, 30° C., Michaelis-Menten fit.

Substrate in data set [6]: CCCCC/C=C\C/C=C\CCCCCCCC(=O)NCCO
The experiment in a line: purified protein, by the assay type. To be noted: other: apparent, substrate, 1 μg protein, pH 9.0, 30 min, 30° C., Michaelis-Menten fit.

Substrate in data set [7]: CCCCCCCCCCCCCC(=O)NCCO
The experiment in a line: purified protein, by the assay type. As to conditions: other: apparent, substrate, 1 μg protein, pH 9.0, 30 min, 30° C., Michaelis-Menten fit.

Substrate in data set [8]: CCCCCCCCCCCCCCCC(=O)NCCO
Description: purified protein, by the assay type. To be noted: other: apparent, substrate, 1 μg protein, pH 9.0, 30 min, 30° C., Michaelis-Menten fit.

Chain of Medicago truncatula (Mt) FAAH (G7ISB0 whole entry G303S, looked up, the tested form may be a part): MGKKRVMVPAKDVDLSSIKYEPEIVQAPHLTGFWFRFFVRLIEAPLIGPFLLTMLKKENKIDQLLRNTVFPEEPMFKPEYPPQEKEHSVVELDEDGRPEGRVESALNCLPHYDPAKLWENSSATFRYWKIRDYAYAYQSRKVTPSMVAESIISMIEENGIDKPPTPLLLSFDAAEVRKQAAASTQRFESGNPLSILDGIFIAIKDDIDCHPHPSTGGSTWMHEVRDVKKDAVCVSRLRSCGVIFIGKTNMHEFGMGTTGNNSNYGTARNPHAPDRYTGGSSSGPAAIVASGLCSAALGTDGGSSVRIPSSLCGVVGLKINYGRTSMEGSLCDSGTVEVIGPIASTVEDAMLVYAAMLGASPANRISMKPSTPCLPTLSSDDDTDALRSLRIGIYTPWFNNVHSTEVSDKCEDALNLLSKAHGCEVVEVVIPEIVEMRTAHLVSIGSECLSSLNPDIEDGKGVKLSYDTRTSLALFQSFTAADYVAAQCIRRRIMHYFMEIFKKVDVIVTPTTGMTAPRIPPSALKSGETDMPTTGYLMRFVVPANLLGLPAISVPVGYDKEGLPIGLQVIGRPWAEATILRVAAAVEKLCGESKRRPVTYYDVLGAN

As to `CCCCCCCCCCCC(=O)NCCO` [NAE 12:0, N-lauroylethanolamine], the EC50 is 18 µM in the data set with Arabidopsis seedlings (FAAH knockout seedlings, first value of the two knockout lines, read-out: EC50, rate of root elongation); 23 µM in the data set with Arabidopsis seedlings (FAAH knockout seedlings, second value of the two knockout lines, read-out: EC50, rate of root elongation); about 29 µM with Arabidopsis seedlings (read-out: concentration that reduced growth by 50% (EC50), rate of root elongation, wildtype seedlings). Also, the seedling growth inhibition entry with Arabidopsis seedlings (FAAH gene expression reduced, particularly knockouts, 14 d growth) was “greatly exacerbated”. Besides, in the data set on Arabidopsis seedlings (FAAH overexpressors, 14 d growth), the “seedling sensitivity to application” value is “essentially insensitive”. Further, in the data set on Arabidopsis seedlings (wildtype seedlings, continuous exposure, 14 d growth), the seedling growth result is “reduced”.

As for `CCCCCCCCCCCCCCCC(=O)NCCO` [NAE 16:0, N-palmitoylethanolamine], the suitability as substrate result (in the data set on rice (Os) FAAH; in [1]) was “equally suitable substrates” in each case.

As for `CCCCC/C=C\C/C=C\CCCCCCCC(=O)NCCO` [NAE 18:2, N-linoleoylethanolamine], the “hydrolysis as substrate by recombinant Arabidopsis NAE amidohydrolase” value in [2] is “effectively hydrolyzed”.

In the case of `O=S(=O)(F)Cc1ccccc1` [PMSF, Phenylmethylsulfonyl fluoride], the “Specific Activity” value in data set [3] is 11.34 ± 0.55 μmol h^−1 mg^−1 Protein and 9.06 ± 1.86 μmol h^−1 mg^−1 Protein and 7.89 ± 0.37 μmol h^−1 mg^−1 Protein and 6.72 ± 0.70 μmol h^−1 mg^−1 Protein and 5.96 ± 0.43 μmol h^−1 mg^−1 Protein.

For the molecule ceramide, in data set [2], the “hydrolysis as substrate by recombinant Arabidopsis NAE amidohydrolase” value was “did not hydrolyze” and the “influence on NAE hydrolysis” value is “nor did ceramide influence NAE hydrolysis”.

B1: recombinant Arabidopsis thaliana NAE amidohydrolase (Arabidopsis thaliana) (protein)
chain: MGKYQVMKRASEVDLSTVKYKAETMKAPHLTGLSFKLFVNLLEAPLIGSLIVDYLKKDNGMTKIFRNTVIPEEPMFRPEFPSQEPEHDVVIVGEDESPIDRLETALKCLPQYDPSRSLHADPVSSFRYWKIRDYAYAYRSKLTTPLQVAKRIISIIEEFGYDKPPTPFLIRFDANEVIKQAEASTRRFEQGNPISVLDGIFVTIKDDIDCLPHPTNGGTTWLHEDRSVEKDSAVVSKLRSCGAILLGKANMHELGMGTTGNNSNYGTTRNPHDPKRYTGGSSSGSAAIVAAGLCSAALGTDGGGSVRIPSALCGITGLKTTYGRTDMTGSLCEGGTVEIIGPLASSLEDAFLVYAAILGSSSADRYNLKPSPPCFPKLLSHNGSNAIGSLRLGKYTKWFNDVSSSDISDKCEDILKLLSNNHGCKVVEIVVPELEEMRAAHVISIGSPTLSSLTPYCEAGKNSKLSYDTRTSFAIFRSFSASDYIAAQCLRRRLMEYHLNIFKDVDVIVTPTTGMTAPVIPPDALKNGETNIQVTTDLMRFVLAANLLGFPAISVPVGYDKEGLPIGLQIMGRPWAEATVLGLAAAVEELAPVTKKPAIFYDILNTN
In the case of B1, the Km was 13.6 ± 2.1 µM in data set [4]; 17.6 ± 2.8 µM in data set [5]; 26.2 ± 5.3 µM in data set [6]; 37.0 ± 5.6 µM in [7]; 50.8 ± 14.1 µM in data set [8]. Further, the Vmax in [4] was found to be 0.298 µmol/min/mg; in [5] it was 0.232 µmol/min/mg; in data set [6], 0.235 µmol/min/mg; in data set [7] it was 0.152 µmol/min/mg; in [8], 0.202 µmol/min/mg.
